{
  "source": "ChEMBL document CHEMBL4304811",
  "about": "“Development of a Water-Soluble Indolylmaleimide Derivative IM-93 Showing Dual Inhibition of Ferroptosis and NETosis” (ACS Med Chem Lett, 2019)",
  "key": {"[1]": {"target": "Cyclin-dependent kinase 11B (Homo sapiens) (UniProt P21127)", "experiment": "Binding affinity to wild-type human partial length CDC2L1 (P353 to G692 residues) expressed in bacterial expression system assessed as residual binding level at 10 uM by Kinomescan method relative to control"}, "[2]": {"target": "Serine/threonine-protein kinase PAK 2 (Homo sapiens) (UniProt Q13177)", "experiment": "Binding affinity to wild-type human partial length PAK2 (P151 to R525 residues) expressed in bacterial expression system assessed as residual binding level at 10 uM by Kinomescan method relative to control"}, "[3]": {"target": "Serine/threonine-protein kinase 38-like (Homo sapiens) (UniProt Q9Y2H1)", "sequence (Q9Y2H1 2-464 limits assumed)": "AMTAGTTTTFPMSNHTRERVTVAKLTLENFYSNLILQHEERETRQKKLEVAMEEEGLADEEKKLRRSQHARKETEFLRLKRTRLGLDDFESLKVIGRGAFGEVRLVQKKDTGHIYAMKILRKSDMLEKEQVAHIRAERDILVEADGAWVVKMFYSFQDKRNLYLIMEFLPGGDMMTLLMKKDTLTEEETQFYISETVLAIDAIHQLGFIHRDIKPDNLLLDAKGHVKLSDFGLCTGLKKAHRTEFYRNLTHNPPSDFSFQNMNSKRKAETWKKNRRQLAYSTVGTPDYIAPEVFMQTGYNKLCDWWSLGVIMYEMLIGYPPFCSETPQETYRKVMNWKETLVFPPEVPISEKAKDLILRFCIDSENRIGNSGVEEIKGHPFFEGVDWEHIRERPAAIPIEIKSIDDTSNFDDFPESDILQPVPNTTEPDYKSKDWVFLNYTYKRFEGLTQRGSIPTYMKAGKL", "experiment": "Binding affinity to wild-type human partial length NDR2 (N34 to E447 residues) expressed in bacterial expression system assessed as residual binding level at 10 uM by Kinomescan method relative to control"}, "[4]": {"target": "Phosphatidylinositol 5-phosphate 4-kinase type-2 gamma (Homo sapiens) (UniProt Q8TBX8)", "sequence (Q8TBX8 whole entry, the tested form may be a part)": "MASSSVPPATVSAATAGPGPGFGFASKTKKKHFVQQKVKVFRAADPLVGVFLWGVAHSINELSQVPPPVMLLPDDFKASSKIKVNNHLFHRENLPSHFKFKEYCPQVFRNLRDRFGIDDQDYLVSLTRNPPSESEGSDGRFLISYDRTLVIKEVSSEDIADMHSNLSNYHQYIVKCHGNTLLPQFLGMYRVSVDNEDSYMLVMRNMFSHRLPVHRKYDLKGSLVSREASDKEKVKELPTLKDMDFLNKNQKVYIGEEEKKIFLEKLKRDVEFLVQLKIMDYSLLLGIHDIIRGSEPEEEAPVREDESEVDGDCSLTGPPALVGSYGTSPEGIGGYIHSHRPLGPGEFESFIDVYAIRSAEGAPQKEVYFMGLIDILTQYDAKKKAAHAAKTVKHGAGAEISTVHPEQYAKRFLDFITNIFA", "experiment": "Binding affinity to wild-type human partial length PIP5K2C (M1 to A421 residues) expressed in mammalian expression system assessed as residual binding level at 10 uM by Kinomescan method relative to control"}, "[5]": {"target": "Serine/threonine-protein kinase DCLK1 (Homo sapiens) (UniProt O15075)", "experiment": "Binding affinity to wild-type human partial length DCAMKL1 (L270 to A662 residues) expressed in mammalian expression system assessed as residual binding level at 10 uM by Kinomescan method relative to control"}, "[6]": {"target": "LIM domain kinase 2 (Homo sapiens) (UniProt P53671)", "experiment": "Binding affinity to wild-type human full length LIMK2 (M1 to P638 residues) expressed in bacterial expression system assessed as residual binding level at 10 uM by Kinomescan method relative to control"}, "[7]": {"system": "Epidermal growth factor receptor (Homo sapiens), P00533 [UNDEFINED MUTATION]", "sequence (P00533 whole entry, looked up, stated change not applied)": "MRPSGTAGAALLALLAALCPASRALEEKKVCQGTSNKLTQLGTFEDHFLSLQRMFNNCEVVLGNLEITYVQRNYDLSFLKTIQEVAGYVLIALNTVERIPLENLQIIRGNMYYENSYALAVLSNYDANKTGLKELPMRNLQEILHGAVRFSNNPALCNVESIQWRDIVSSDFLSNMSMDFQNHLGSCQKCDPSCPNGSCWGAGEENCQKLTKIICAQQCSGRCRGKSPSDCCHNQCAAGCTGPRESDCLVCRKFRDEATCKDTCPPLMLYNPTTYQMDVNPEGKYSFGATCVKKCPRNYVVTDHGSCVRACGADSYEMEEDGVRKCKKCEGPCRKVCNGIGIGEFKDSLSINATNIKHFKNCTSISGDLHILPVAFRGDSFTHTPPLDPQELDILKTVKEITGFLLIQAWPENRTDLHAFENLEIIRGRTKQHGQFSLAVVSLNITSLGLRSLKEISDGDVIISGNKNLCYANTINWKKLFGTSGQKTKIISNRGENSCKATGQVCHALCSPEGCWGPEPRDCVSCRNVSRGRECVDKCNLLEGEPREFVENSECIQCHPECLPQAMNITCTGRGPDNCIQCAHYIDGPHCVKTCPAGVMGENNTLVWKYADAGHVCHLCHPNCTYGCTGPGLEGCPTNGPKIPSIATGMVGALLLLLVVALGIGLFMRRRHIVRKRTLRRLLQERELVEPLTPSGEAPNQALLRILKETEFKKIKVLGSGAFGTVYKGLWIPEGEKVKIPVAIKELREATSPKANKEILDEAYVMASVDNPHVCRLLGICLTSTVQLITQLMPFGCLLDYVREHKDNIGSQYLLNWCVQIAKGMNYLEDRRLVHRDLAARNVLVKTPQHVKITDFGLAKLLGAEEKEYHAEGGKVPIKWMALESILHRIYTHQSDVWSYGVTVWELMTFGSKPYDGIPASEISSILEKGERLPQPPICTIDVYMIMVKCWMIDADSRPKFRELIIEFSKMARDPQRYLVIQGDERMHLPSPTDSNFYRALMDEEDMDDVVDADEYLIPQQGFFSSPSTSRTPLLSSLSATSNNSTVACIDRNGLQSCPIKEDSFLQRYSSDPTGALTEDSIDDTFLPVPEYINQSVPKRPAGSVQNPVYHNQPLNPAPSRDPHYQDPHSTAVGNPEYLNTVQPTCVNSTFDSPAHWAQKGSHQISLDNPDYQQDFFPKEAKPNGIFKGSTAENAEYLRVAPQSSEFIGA", "experiment": "Binding affinity to human partial length EGFR L747-S752del/P753S mutant expressed in bacterial expression system assessed as residual binding level at 10 uM by Kinomescan method relative to control"}, "[8]": {"target": "Serine/threonine-protein kinase 16 (Homo sapiens) (UniProt O75716)", "experiment": "Binding affinity to wild-type human partial length STK16 (G11 to I305 residues) expressed in bacterial expression system assessed as residual binding level at 10 uM by Kinomescan method relative to control"}, "[9]": {"target": "Mitogen-activated protein kinase kinase kinase kinase 4 (Homo sapiens) (UniProt O95819)", "experiment": "Binding affinity to wild-type human partial length MAP4K4 (M1 to R310 residues) expressed in bacterial expression system assessed as residual binding level at 10 uM by Kinomescan method relative to control"}, "THP-1": {"system": "THP-1", "experiment": "Inhibition of Staphylococcus aureus-induced pyroptosis in human THP1 cells at 10 uM preincubated for 1 hr followed by bacterial infection and measured after 2 hrs by INT dye based LDH assay", "assay_type": "functional, cell-based"}, "[10]": {"target": "Aurora kinase A (Homo sapiens) (UniProt O14965)", "experiment": "Binding affinity to wild-type human partial length AURKA (E122 to K401 residues) expressed in mammalian expression system assessed as residual binding level at 10 uM by Kinomescan method relative to control"}, "[11]": {"target": "Tyrosine-protein kinase BTK (Homo sapiens) (UniProt Q06187)", "experiment": "Binding affinity to wild-type human full length BTK (M1 to S659 residues) expressed in mammalian expression system assessed as residual binding level at 10 uM by Kinomescan method relative to control"}, "[12]": {"target": "cAMP-dependent protein kinase catalytic subunit beta (Homo sapiens) (UniProt P22694)", "experiment": "Binding affinity to wild-type human full length PKAC-beta (M1 to F351 residues) expressed in bacterial expression system assessed as residual binding level at 10 uM by Kinomescan method relative to control"}, "[13]": {"target": "Serine/threonine-protein kinase 36 (Homo sapiens) (UniProt Q9NRP7)", "sequence (Q9NRP7 whole entry, the tested form may be a part)": "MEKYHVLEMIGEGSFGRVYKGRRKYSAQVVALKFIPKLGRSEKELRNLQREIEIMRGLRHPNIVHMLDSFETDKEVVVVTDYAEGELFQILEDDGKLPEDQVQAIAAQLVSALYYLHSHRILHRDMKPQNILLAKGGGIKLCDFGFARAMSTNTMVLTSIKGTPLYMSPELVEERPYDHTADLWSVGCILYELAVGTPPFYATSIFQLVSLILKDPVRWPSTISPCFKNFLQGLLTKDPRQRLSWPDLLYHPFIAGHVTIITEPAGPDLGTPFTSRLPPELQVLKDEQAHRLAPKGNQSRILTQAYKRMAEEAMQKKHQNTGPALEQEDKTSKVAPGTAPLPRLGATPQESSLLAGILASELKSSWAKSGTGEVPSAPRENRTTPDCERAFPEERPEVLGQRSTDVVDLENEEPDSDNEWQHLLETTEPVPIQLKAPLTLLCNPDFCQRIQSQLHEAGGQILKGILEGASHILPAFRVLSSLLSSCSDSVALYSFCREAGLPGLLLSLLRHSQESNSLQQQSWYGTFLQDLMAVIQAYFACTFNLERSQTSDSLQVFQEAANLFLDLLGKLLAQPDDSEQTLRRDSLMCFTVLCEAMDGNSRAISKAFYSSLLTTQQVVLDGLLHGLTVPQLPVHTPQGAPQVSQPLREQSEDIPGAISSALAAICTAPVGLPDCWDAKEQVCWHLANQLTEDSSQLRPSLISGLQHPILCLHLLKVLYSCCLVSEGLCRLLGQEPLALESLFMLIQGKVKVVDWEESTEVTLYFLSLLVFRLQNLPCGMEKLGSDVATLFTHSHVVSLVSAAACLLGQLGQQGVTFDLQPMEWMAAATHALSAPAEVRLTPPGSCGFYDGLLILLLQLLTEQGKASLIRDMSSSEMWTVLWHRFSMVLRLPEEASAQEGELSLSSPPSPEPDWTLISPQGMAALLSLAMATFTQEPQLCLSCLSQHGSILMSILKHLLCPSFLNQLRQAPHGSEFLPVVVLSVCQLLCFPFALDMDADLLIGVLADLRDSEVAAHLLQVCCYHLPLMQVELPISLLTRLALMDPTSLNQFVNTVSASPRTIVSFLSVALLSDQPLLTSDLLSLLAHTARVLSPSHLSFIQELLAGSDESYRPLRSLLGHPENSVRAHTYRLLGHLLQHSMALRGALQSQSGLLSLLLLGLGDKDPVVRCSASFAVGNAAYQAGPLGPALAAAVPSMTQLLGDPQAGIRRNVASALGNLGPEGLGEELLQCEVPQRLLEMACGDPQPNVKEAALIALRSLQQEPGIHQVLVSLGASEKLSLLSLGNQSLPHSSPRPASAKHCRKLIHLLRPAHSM", "experiment": "Binding affinity to wild-type human partial length STK36 (M1 to T271 residues) expressed in bacterial expression system assessed as residual binding level at 10 uM by Kinomescan method relative to control"}, "[14]": {"target": "Epithelial discoidin domain-containing receptor 1 (Homo sapiens) (UniProt Q08345)", "experiment": "Binding affinity to wild-type human partial length DDR1 (R565 to V876 residues) expressed in bacterial expression system assessed as residual binding level at 10 uM by Kinomescan method relative to control"}, "[15]": {"target": "Serine/threonine-protein kinase pim-3 (Homo sapiens) (UniProt Q86V86)", "experiment": "Binding affinity to wild-type human partial length PIM3 (G16 to A317 residues) expressed in bacterial expression system assessed as residual binding level at 10 uM by Kinomescan method relative to control"}, "[16]": {"target": "Mitogen-activated protein kinase kinase kinase kinase 1 (Homo sapiens) (UniProt Q92918)", "sequence (Q92918 whole entry, looked up, the tested form may be a part)": "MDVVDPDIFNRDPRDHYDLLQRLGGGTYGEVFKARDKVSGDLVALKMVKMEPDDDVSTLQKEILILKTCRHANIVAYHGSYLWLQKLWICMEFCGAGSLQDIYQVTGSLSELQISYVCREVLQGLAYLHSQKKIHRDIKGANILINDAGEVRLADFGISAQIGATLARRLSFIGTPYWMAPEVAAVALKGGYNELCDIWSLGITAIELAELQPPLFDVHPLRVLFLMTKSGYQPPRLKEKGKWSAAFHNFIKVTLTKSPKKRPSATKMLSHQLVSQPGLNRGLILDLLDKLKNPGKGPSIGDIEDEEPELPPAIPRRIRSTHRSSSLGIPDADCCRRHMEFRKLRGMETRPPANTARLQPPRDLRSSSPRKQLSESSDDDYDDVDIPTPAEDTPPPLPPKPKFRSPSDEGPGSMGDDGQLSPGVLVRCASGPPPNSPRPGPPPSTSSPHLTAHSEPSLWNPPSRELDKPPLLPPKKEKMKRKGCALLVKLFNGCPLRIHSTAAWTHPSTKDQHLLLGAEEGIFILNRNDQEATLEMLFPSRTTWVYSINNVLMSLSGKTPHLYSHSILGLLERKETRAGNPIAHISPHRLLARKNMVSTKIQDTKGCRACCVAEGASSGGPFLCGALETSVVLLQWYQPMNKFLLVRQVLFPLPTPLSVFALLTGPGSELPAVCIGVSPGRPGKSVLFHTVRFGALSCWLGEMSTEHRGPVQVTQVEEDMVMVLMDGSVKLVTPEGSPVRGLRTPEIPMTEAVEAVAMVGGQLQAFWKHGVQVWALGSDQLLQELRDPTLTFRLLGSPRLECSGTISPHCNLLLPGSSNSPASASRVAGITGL", "experiment": "Binding affinity to wild-type human full length HPK1 (M1 to R799 residues) expressed in bacterial expression system assessed as residual binding level at 10 uM by Kinomescan method relative to control"}, "[17]": {"target": "Leukocyte tyrosine kinase receptor (Homo sapiens) (UniProt P29376)", "experiment": "Binding affinity to wild-type human partial length LTK (P422 to S744 residues) expressed in bacterial expression system assessed as residual binding level at 10 uM by Kinomescan method relative to control"}, "[18]": {"target": "3-phosphoinositide-dependent protein kinase 1 (Homo sapiens) (UniProt O15530)", "experiment": "Binding affinity to wild-type human full length PDPK1 (M1 to Q556 residues) expressed in bacterial expression system assessed as residual binding level at 10 uM by Kinomescan method relative to control"}, "[19]": {"target": "Cyclin-dependent kinase 15 (Homo sapiens) (UniProt Q96Q40)", "sequence (Q96Q40 whole entry, the tested form may be a part)": "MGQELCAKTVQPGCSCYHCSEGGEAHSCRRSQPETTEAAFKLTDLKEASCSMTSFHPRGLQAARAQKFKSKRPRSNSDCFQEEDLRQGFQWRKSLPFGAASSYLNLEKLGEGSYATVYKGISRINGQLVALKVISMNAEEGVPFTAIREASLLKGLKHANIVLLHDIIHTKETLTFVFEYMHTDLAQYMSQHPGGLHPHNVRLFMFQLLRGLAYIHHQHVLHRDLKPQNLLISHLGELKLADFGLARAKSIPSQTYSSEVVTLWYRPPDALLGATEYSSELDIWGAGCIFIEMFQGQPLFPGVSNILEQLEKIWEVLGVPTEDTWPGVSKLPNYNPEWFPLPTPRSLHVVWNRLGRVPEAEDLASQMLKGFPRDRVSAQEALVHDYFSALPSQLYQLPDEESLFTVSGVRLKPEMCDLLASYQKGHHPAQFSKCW", "experiment": "Binding affinity to wild-type human full length PFTAIRE2 (M1 to W384 residues) expressed in bacterial expression system assessed as residual binding level at 10 uM by Kinomescan method relative to control"}, "[20]": {"target": "Tyrosine-protein kinase receptor Tie-1 (Homo sapiens) (UniProt P35590)", "experiment": "Binding affinity to wild-type human partial length TIE1 (T819 to A1138 residues) expressed in bacterial expression system assessed as residual binding level at 10 uM by Kinomescan method relative to control"}, "[21]": {"target": "ALK tyrosine kinase receptor (Homo sapiens) (UniProt Q9UM73)", "experiment": "Binding affinity to wild-type human partial length ALK (I1088 to E1409 residues) expressed in mammalian expression system assessed as residual binding level at 10 uM by Kinomescan method relative to control"}, "[22]": {"target": "Casein kinase I isoform gamma-2 (Homo sapiens) (UniProt P78368)", "experiment": "Binding affinity to wild-type human full length CSNK1G2 (M1 to K415 residues) expressed in bacterial expression system assessed as residual binding level at 10 uM by Kinomescan method relative to control"}, "[23]": {"target": "Serine/threonine-protein kinase TAO3 (Homo sapiens) (UniProt Q9H2K8)", "experiment": "Binding affinity to wild-type human partial length TAOK3 (M1 to T316 residues) expressed in mammalian expression system assessed as residual binding level at 10 uM by Kinomescan method relative to control"}, "[24]": {"target": "Rho-associated protein kinase 2 (Homo sapiens) (UniProt O75116)", "experiment": "Binding affinity to wild-type human partial length ROCK2 (M1 to T431 residues) expressed in mammalian expression system assessed as residual binding level at 10 uM by Kinomescan method relative to control"}},
  "note": "Activity calls are given as the source filed them. No cut-off for these calls is given here.",
  "data": [
    {"smiles": "CC(C)N1C(=O)C(NCCCN(C)C)=C(c2cn(C)c3ccccc23)C1=O.Cl", "values": [
      {"measurement": "Activity", "setting": "[1]", "result": 96, "unit": "%"},
      {"measurement": "Activity", "setting": "[2]", "result": 100, "unit": "%"},
      {"measurement": "Activity", "setting": "[3]", "result": 74, "unit": "%"},
      {"measurement": "Activity", "setting": "[4]", "result": 83, "unit": "%"},
      {"measurement": "Activity", "setting": "[5]", "result": 94, "unit": "%"},
      {"measurement": "Activity", "setting": "[6]", "result": 93, "unit": "%"},
      {"measurement": "Activity", "setting": "[7]", "result": 88, "unit": "%"},
      {"measurement": "Activity", "setting": "[8]", "result": 99, "unit": "%"},
      {"measurement": "Activity", "setting": "[9]", "result": 95, "unit": "%"},
      {"measurement": "inhibition", "setting": "THP-1", "result": "inactive"},
      {"measurement": "Activity", "setting": "[10]", "result": 90, "unit": "%"},
      {"measurement": "Activity", "setting": "[11]", "result": 100, "unit": "%"},
      {"measurement": "Activity", "setting": "[12]", "result": 98, "unit": "%"},
      {"measurement": "Activity", "setting": "[13]", "result": 98, "unit": "%"},
      {"measurement": "Activity", "setting": "[14]", "result": 100, "unit": "%"},
      {"measurement": "Activity", "setting": "[15]", "result": 98, "unit": "%"},
      {"measurement": "Activity", "setting": "[16]", "result": 100, "unit": "%"},
      {"measurement": "Activity", "setting": "[17]", "result": 100, "unit": "%"},
      {"measurement": "Activity", "setting": "[18]", "result": 89, "unit": "%"},
      {"measurement": "Activity", "setting": "[19]", "result": 99, "unit": "%"},
      {"measurement": "Activity", "setting": "[20]", "result": 92, "unit": "%"},
      {"measurement": "Activity", "setting": "[21]", "result": 100, "unit": "%"},
      {"measurement": "Activity", "setting": "[22]", "result": 91, "unit": "%"},
      {"measurement": "Activity", "setting": "[23]", "result": 88, "unit": "%"},
      {"measurement": "Activity", "setting": "[24]", "result": 100, "unit": "%"}
    ]}
  ]
}
